We go through 18 compounds from US20140221207A1, “ISOLATED BACTERIAL STRAIN OF THE GENUS BURKHOLDERIA AND PESTICIDAL METABOLITES THEREFROM- FORMULATIONS AND USES” (MARRONE BIO INNOVATIONS, INC., priority 2011, published 2014).

Experiment [1] deals with Two Spotted Spidermite (TSM). Briefly: Control of two spotted spidermite (TSM) in strawberry, field data. In kind it is in vivo. The following applies: 6 oz./acre. Here is the method: The efficacies of five traditional chemistry-derived and MBI 206 were evaluated for TSM control under field conditions. ‘Strawberry Festival’ transplants were set in the field in plastic mulched beds, 13 inches high and 27 inches across the top, and with 4 ft bed spacing. Overhead irrigation was applied for 10 days after setting to aid in establishment of the transplants. Trickle irrigation was used for the remainder of the experiment. Each 12.5-ft. plot consisted of 20 plants in two ten-plant rows per bed. Plots were infested from a laboratory colony in four sessions with 10 to 20 motile TSM, per plant. Each session accomplished the infestation of one block of the experiment. The experiment consisted of treatments of various rates and schedules of application of miticides, some combined with an adjuvant, and a non-treated check. Treatments were replicated four times in a RCB design. Savey and Acramite treatments were applied before TSM densities reached threshold levels (6 January); the remainder of the treatment programs began 2 wks later. Treatments were applied using a hand-held sprayer with a spray wand outfitted with a nozzle containing a 45-degree core and a number four disc.
The sprayer was pressurized by CO2, to 40 psi, and calibrated to deliver 100 gal per acre. Pre-treatment samples were taken on Day 1 and sampling continued weekly through 2 wks after the last application of treatments. Samples consisted of ten randomly selected leaflets per plot and were collected from the middle one-third stratum of the plants. Samples were transported to the laboratory where motile and egg TSM were brushed from the leaflets onto rotating sticky discs and counted on 1/10 of the disc surface to estimate average numbers per leaflet. Distinctions could not be made between viable and non-viable eggs, thus total eggs were recorded.

For experiment [2], the system named is Burkholderia A396. In kind it is cell-based, Burkholderia sp. A396. The note with it: 72-hour incubation at 25° C. Here is the method: Antibiotic susceptibility of Burkholderia A396 is tested using antibiotic disks on Muller-Hinton medium as described in PML Microbiological's technical data sheet #535.
The subject of experiment [3] is B. cepacia complex. The following applies: 2,621 strains in B. cepacia complex; cited from earlier work.
Experiment [4] deals with Chlamydomonas reinhardtii. Briefly: Control of Chlamydomonas reinhardtii by purified compounds, fluorescence at 680 nm. The note with it: 72 hours. In kind it is cell-based. On the procedure:
Purified compounds from Burkholderia sp. fermentation broth was tested for algaicidal activity against Chlamydomonas reinhardtii. An increasing volume of the purified compounds (20 mg/mL in ethanol) was added to a clear 48 well polystyrene plate with 750 micro liters of the specified algae growing. Each treatment was done in two replicates and the solvent used as a negative control. The plate was closed with a lid and incubated for 72 hours under constant light at room temperature. After 72 hours the fluorescence (at 680 nm) of the suspension in each well was measured using a SpectraMax M2 plate reader, and the reduction in fluorescence compared with the negative control was converted into percent control of algal growth. Each sample was visually compared to the negative control; a well that was visually clearer than the negative control was scored as active. […] Tests were run in two replicates and %. Control was calculated as a reduction of fluorescence at 680 nm compared with the negative control. Each sample was visually compared to the negative control; a well that was visually clearer than the negative control was scored as active.

In experiment [5] the test system is Lygus hesperus. Briefly: 12 well plate treated green beans bioassay, Lygus hesperus late 2nd/early 3rd instar. In kind it is in vivo. The note with it: green beans dipped in 0.25 mg/mL, scored at 24, 48 and 120 hours. On the procedure: The insecticidal activity of the four compounds, templamide A, templamide B, FR901465 & FR901228 isolated from Burkholderia were tested in a laboratory assay using a 12 well plate with treated green beans bioassay system. The compound was dissolved in 100% ethanol to concentrations of […] and 500 μL of this sample was added to 3.5 mL of water to make a total volume of 4 mL containing 0.25 mg/mL concentration of the compound. Green beans were washed earlier in bleach solution and then sat in water to rinse. Beans were dried before using and then were cut with scissors to fit into wells of 12-well plate. With the help of forceps the beans were dunked into a 15 mL plastic falcon tube containing each treatment and then submerged in treatment for exactly one min. one bean part was put into each well and then individual late 2nd/early 3rd instar Lygus hesperus, were placed in wells with help of brush. Plate sealer was used to cover tray and hole poked into the plate sealer for aeration. The numbers of Lygus/well were counted and plates were placed on brench top. Larvae were scored at 24, 48 and 120 hours after application. […] The positive control used in this testing was Avid (Avemectin) at the rate of 13 μL/10 mL.

Where [6] appears, read: 5 μL of sample (20 mg/mL in ethanol) per 750 μL of algae.
Where [7] appears, read: 5 μL of sample per 750 μL of algae.
[8] abbreviates: 11 μL of sample (20 mg/mL in ethanol) per 750 μL of algae.
Where [9] appears, read: 11 μL of sample per 750 μL of algae.
[10] abbreviates: 22.5 μL of sample (20 mg/mL in ethanol) per 750 μL of algae.
[11] abbreviates: 22.5 μL of sample per 750 μL of algae, well visually clearer than negative control scored as active.

Where “and” joins values, the source holds several entries; their conditions need not be identical. Equal values may be shown once. Read-outs that look alike come from different tables or passages of the source.

Consider `C[C@@H]1[C@@H](c2ccc(Cl)cc2)SC(=O)N1C(=O)NC1CCCCC1` [hexythiazox], for which the “No. egg TSM/leaflet” value in experiment [1] (Day 1 (pre-treatment sample)) was determined as 2; in experiment [1] (Day 9), 8.5; in experiment [1] (Day 16), 15; in experiment [1] (Day 22), 17; in experiment [1] (Day 30) it was 22; in experiment [1] (Day 37) it was 71.5. Besides, the “No. egg TSM/leaflet” value in experiment [1] (Day 44) is given as 128.5; in experiment [1] (Day 52) it was 281.5; in experiment [1] (Day 58) it was 393.5.

For the compound `CC1(C)S[C@@H]2[C@H](NC(=O)[C@H](N)c3ccccc3)C(=O)N2[C@H]1C(=O)O` [Ampicillin], the Susceptible result in experiment [2] (disk 10 μg) was “−”.

Take `O=C(N[C@H](CO)[C@H](O)c1ccc([N+](=O)[O-])cc1)C(Cl)Cl` [Chloramphenicol]: in experiment [3], the “share of strains susceptible” value is on record as 15%. The Susceptible result in experiment [2] (disk 30 μg) is given as “++”.

Take Penicillin: in experiment [2] (disk 10 μg), the Susceptible entry is listed as “−”.

As to templazole B, the “% Control” value in experiment [4] (setting [6]) is on record as −102.1%; in experiment [4] (setting [8]), 52.95%; in experiment [4] (setting [10]) it was −30.79%. Also, the Visual entry in experiment [4] (setting [7]), in experiment [4] (setting [9]) and in experiment [4] (setting [11]) was “Not Active” in each case.

For Gentamicin, the Susceptible result in experiment [2] (disk 10 μg) was “−”.

`[H]/N=C(/N)N[C@H]1[C@H](O)[C@@H](O)[C@H](O[C@@H]2O[C@@H](C)[C@](O)(C=O)[C@H]2O[C@@H]2O[C@@H](CO)[C@H](O)[C@@H](O)[C@@H]2NC)[C@@H](N/C(N)=N\[H])[C@@H]1O` [Streptomycin]: the Susceptible result in experiment [2] (disk 10 μg) is “−”.

`O=C(O)c1cn(C2CC2)c2cc(N3CCNCC3)c(F)cc2c1=O` [Ciprofloxacin]: the “share of strains susceptible” value in experiment [3] was 5%. For the same compound, the Susceptible entry in experiment [2] (disk 5 μg) is reported as “++”.

Regarding `CN(C)[C@@H]1C(O)=C(C(N)=O)C(=O)[C@@]2(O)C(O)=C3C(=O)c4c(O)cccc4[C@@](C)(O)[C@H]3[C@H](O)[C@@H]12` [Oxytetracycline], in experiment [2] (disk 30 μg), the Susceptible entry is recorded as “−”.

Regarding `C[C@@H](O)[C@H]1C(=O)N2C(C(=O)O)=C(SCCN=CN)C[C@H]12` [Imipenem], the Susceptible entry in experiment [2] (disk 10 μg) is “+++”.

The term mortality denotes the share of the test organisms that died. Compound `CCC(=O)OC(C)/C=C\C(=O)NC1CC(C)C(C/C=C(C)/C=C/C2OC(C)(O)C(O)C3(CO3)C2O)OC1C` (centres unmarked) [Templamide B] yielded a mortality at 250 µg/mL in experiment [5] (Lygus hesperus) of 69.2%. The results for the “% Control” value in experiment [4] (setting [6]), in experiment [4] (setting [8]) and in experiment [4] (setting [10]) were 95.05%, 99.34% and 98.3%, respectively. For the same compound, the Visual entry in experiment [4] (setting [7]), in experiment [4] (setting [9]) and in experiment [4] (setting [11]) was “Active” throughout.

Turning to `COC(=O)c1nc(CC(C)C)oc1-c1c[nH]c2ccccc12` [Templazole A, templazole A], the “% Control” value was 99.18% and 98.69% in experiment [4] (setting [6]); 98.73% and 98.31% in experiment [4] (setting [8]); 98.15% and 95.71% in experiment [4] (setting [10]). The Visual entry in experiment [4] (setting [7]), in experiment [4] (setting [9]) and in experiment [4] (setting [11]) was “Active” each time.

`CC[C@H]1OC(=O)[C@H](C)[C@@H](O[C@H]2C[C@@](C)(OC)[C@@H](O)[C@H](C)O2)[C@H](C)[C@@H](O[C@@H]2O[C@H](C)C[C@H](N(C)C)[C@H]2O)[C@](C)(O)C[C@@H](C)C(=O)[C@H](C)[C@@H](O)[C@]1(C)O` [Erythromycin]: the Susceptible result in experiment [2] (disk 15 μg) is recorded as “−”.

For the compound `CCC(=O)OC(C)/C=C\C(=O)NC1CC(C)C(C/C=C(C)/C=C/C2OC(C)(O)C(O)C(O)(CO)C2O)OC1C` (centres unmarked) [Templamide A], in experiment [5], the mortality entry is “inactive”. Further, the entries for the “% Control” value in experiment [4] (setting [6]), in experiment [4] (setting [8]) and in experiment [4] (setting [10]) were −67.61%, −21.16% and −151.6%, respectively. Moreover, the Visual result in experiment [4] (setting [7]), in experiment [4] (setting [9]) and in experiment [4] (setting [11]) was “Not Active” throughout.

As for `CN(C)[C@@H]1C(O)=C(C(N)=O)C(=O)[C@@]2(O)C(O)=C3C(=O)c4c(O)cccc4[C@@](C)(O)[C@H]3C[C@@H]12` [Tetracycline], the Susceptible result in experiment [2] (disk 30 μg) is “−”.

In the case of `NC[C@H]1O[C@H](O[C@H]2[C@H](O)[C@@H](O[C@H]3O[C@H](CO)[C@@H](O)[C@H](N)[C@H]3O)[C@H](N)C[C@@H]2N)[C@H](O)[C@@H](O)[C@@H]1O` [Kanamycin], the Susceptible result in experiment [2] (disk 30 μg) is “+++”.

For the compound `CCN1CCN(C(=O)N[C@@H](C(=O)N[C@@H]2C(=O)N3[C@@H]2SC(C)(C)[C@@H]3C(=O)O)c2ccccc2)C(=O)C1=O` [Piperacillin], the Susceptible result in experiment [2] (disk 100 μg) was “+++”.

As for `CO/N=C(\C(=O)N[C@@H]1C(=O)N2C(C(=O)O)=C(COC(N)=O)CS[C@H]12)c1ccco1` [Cefuroxime], in experiment [2] (disk 30 μg), the Susceptible result was “−”.
